The target in the assay is T1, voltage-gated sodium channel of interest (NaV1.7) (Homo sapiens, UniProt Q15858).
T1 construct: Gene(s) encoding the full-length protein of the voltage-gated sodium channel of interest are cloned and expressed; expressed in transfected cells
T1 sequence (Q15858 whole entry): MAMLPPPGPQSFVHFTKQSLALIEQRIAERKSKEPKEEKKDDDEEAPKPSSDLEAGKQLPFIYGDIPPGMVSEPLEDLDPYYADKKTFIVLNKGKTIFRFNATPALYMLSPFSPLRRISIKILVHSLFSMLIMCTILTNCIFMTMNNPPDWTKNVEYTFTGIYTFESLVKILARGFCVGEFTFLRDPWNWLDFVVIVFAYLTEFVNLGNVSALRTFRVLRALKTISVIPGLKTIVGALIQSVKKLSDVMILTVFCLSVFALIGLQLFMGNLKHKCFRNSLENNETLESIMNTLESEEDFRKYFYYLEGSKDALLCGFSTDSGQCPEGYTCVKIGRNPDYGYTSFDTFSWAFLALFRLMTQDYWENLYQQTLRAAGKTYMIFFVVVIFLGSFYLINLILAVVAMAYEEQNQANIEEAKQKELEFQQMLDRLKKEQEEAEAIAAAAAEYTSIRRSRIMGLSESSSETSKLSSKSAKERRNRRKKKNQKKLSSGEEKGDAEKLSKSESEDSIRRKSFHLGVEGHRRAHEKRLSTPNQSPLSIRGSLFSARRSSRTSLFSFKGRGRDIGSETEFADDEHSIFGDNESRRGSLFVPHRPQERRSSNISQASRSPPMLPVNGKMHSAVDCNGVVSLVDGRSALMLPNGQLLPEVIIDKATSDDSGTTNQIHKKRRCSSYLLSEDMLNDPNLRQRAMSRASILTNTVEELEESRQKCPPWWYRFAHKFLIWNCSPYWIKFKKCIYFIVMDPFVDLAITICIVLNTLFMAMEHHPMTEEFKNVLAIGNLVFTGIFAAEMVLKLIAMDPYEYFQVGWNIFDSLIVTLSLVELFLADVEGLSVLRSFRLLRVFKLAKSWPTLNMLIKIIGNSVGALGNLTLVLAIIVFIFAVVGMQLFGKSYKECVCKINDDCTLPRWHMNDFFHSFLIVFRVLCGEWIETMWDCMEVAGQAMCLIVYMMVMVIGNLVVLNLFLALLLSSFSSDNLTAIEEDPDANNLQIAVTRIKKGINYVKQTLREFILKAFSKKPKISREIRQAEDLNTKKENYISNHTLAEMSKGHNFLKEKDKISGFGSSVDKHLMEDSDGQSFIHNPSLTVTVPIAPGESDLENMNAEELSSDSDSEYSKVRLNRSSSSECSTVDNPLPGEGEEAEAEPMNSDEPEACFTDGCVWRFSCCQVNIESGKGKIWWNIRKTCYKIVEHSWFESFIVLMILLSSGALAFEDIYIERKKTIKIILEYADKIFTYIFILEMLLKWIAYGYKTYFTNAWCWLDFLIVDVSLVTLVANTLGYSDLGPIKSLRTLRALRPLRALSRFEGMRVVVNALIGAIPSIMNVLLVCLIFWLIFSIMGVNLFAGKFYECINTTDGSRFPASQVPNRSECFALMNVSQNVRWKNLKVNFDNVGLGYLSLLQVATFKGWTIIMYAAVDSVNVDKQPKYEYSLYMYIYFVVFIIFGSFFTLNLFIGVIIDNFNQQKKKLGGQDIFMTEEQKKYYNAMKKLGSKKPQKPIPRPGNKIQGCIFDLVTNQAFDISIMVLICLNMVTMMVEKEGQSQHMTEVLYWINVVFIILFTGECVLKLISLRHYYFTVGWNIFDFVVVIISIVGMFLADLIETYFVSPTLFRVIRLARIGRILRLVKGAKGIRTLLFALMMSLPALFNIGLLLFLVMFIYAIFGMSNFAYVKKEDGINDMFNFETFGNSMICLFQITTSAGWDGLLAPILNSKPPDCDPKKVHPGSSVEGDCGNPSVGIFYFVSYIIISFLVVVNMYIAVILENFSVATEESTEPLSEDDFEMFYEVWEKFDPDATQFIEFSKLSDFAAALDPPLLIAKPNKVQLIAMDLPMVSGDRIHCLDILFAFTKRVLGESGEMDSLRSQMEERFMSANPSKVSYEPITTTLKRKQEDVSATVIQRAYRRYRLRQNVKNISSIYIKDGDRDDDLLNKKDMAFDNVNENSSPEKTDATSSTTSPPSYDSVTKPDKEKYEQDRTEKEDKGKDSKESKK
The experiment in a line: Whole-cell voltage clamp electrophysiology assay (automated patch-clamp). The following applies: cells stably expressing the voltage-gated sodium channel. The class given is cell-based. The source says: Gene(s) encoding the full-length protein of the voltage-gated sodium channel of interest are cloned and expressed under a suitable promoter in a suitable cell line, as well known in the art. The so constructed stable cell lines are used in screening assays to identify suitable compounds active on voltage-gated sodium channels. Suitable screening assays are as follows.
Electrophysiological recordings of sodium currents in cells stably expressing the voltage-gated sodium channel of interest confirms activity and provides a functional measure of the potency of compounds that specifically affect such channels.
Electrophysiological studies was performed using automated patch-clamp electrophysiology platforms, like IonWorks HT, IonWorks Quattro, PatchXpress, or any other suitable platform. The cell line expressing the voltage-gated sodium channel of interest was plated in appropriate well tissue plates, as provided by the manufacturer of the automated patch-clamp platforms. Suitable extracellular and intracellular buffer for such experiments was applied according to the instructions given by the manufacturer of the automated patch-clamp platforms. Cells that express the voltage-gated sodium channel protein of interest was exposed to drugs through the pipetting system integrated in the platforms. A suitable voltage stimulus protocol was used to activate the voltage-gated sodium channel proteins of interest. A suitable stimulus protocol consisted of eight voltage pulses, each to −20 mV and 50 ms in length, and separated from each other by 330 ms intervals at a potential of −90 mV, or −65 mV.
Electrophysiological studies can also be performed using the whole cell configuration of the standard patch clamp technique as described in the literature (26). In this assay, cells that express the human voltage-gated sodium channel protein of interest are exposed to the drugs by conventional microperfusion systems and a suitable voltage stimulus protocol is used to activate the voltage-gated sodium channels.
`COc1ccccc1CN1C(=O)c2ccccc2C1C(=O)Nc1c(C)cccc1Cl` (stereo not shown) [Example 2, N-(2-chloro-6-methylphenyl)-2-(2-methoxybenzyl)-3-oxoisoindoline-1-carboxamide]: the IC50 was 316 nM.

In turn, `Cc1cccc(C)c1NC(=O)C1c2ccccc2C(=O)N1CCOc1cc(C(F)(F)F)ccc1F` (stereo not shown) [Example 15, N-(2,6-dimethylphenyl)-2-{2-[2-fluoro-5-(trifluoromethyl)phenoxy]ethyl}-3-oxoisoindoline-1-carboxamide] had an IC50 of 200 nM.

With `COc1ccccc1CN1C(=O)c2ccccc2C1C(=O)Nc1c(Cl)cccc1Cl` (stereo not shown) [Example 16, N-(2,6-dichlorophenyl)-2-(2-methoxybenzyl)-3-oxoisoindoline-1-carboxamide], the IC50 is 251 nM.

For the compound `COc1cc(F)ccc1CN1C(=O)c2ccccc2C1C(=O)Nc1c(C)cccc1C` (stereo not shown) [Example 38, N-(2,6-dimethylphenyl)-2-(4-fluoro-2-methoxybenzyl)-3-oxoisoindoline-1-carboxamide], the midpoint of inhibition, the IC50, lay at 100 nM.

These data come from patent US20090291983A1, “3-Oxoisoindoline-1-Carboxamide Derivatives as Analgesic Agents” (AstraZeneca AB, priority 2006, published 2009).
